Laboratory results published in US8580811B2 (Ligand Pharmaceuticals Incorporated, priority 2005, dated 2013).

Molecular target: T1, human AR (Homo sapiens, UniProt P10275)
T1 construct: expressed in transfected cells; host or cells: COS-1 cells
T1 sequence (P10275 1-920): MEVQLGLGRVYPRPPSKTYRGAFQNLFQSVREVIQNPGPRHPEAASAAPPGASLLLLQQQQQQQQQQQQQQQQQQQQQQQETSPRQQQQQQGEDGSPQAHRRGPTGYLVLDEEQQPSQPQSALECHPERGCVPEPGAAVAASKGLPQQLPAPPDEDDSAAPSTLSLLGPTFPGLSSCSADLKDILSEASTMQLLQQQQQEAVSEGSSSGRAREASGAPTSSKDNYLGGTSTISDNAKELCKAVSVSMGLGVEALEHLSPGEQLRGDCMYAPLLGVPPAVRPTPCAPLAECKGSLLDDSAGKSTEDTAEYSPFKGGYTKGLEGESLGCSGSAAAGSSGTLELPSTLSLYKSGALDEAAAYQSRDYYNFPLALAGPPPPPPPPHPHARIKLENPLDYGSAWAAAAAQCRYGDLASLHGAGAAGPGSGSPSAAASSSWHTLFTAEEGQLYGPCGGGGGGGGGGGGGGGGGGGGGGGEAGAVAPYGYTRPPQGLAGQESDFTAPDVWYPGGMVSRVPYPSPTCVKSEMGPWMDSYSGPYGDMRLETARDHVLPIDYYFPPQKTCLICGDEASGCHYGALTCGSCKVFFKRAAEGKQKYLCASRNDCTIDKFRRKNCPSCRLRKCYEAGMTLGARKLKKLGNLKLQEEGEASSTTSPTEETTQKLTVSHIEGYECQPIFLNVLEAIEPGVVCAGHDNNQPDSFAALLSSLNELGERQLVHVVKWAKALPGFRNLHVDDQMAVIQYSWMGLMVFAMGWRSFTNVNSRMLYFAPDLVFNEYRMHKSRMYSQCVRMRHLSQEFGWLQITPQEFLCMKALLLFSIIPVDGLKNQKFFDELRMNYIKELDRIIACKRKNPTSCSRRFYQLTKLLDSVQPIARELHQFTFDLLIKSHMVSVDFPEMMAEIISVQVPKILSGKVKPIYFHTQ
Assay: IR Binding Assay: whole cell competitive binding of test compounds against 3H-DHT in COS-1 cells transfected with pRShAR
Settings: not given
Procedure: For the whole cell binding assay, COS-1 cells in 96-well microtiter plates including DMEM-10% FBS were transfected as described above with the following plasmid DNA: pRShAR (2 ng/well), pRS-β-Gal (50 ng/well) and pGEM (48 ng/well). Six hours after transfection, media was removed, the cells were washed with PBS and fresh media was added. The next day, the media was changed to DMEM-serum free to remove any endogenous ligand that might be complexed with the receptor in the cells.
After 24 hours in serum-free media, either a saturation analysis to determine the Kd for tritiated dihydrotestosterone (^3H-DHT) on human AR or a competitive binding assay to evaluate the ability of test compounds to compete with ^3H-DHT for AR was performed. […] For the competitive binding assay, media including 1 nM ^3H-DHT and test compounds in concentrations ranging from 10^−10 to 10^−6 M were added to the cells. Three replicates were used for each sample. After three hours at 37° C., an aliquot of the total binding media at each concentration of ^3H-DHT was removed to estimate the amount of free ^3H-DHT. The remaining media was removed, the cells were washed three times with PBS to remove unbound ligand, and cells were lysed with a Triton X-100-based buffer. The lysates were assayed for amount of bound ^3H-DHT and β-Gal activity using a scintillation counter or spectrophotometer, respectively.
For the saturation analyses, the difference between the total binding and the nonspecific binding, normalized by the β-Gal rate, was defined as specific binding. The specific binding was evaluated by Scatchard analysis to determine the Kd for ^3H-DHT. See e.g., D. Rodbard, “Mathematics and statistics of ligand assays: an illustrated guide” In: J. Langon and J. J. Clapp, eds., Ligand Assay, Masson Publishing U.S.A., Inc., New York, pp. 45-99, (1981), the disclosure of which is herein incorporated by reference. For the competition studies, the data was plotted as the amount of ^3H-DHT (% of control in the absence of test compound) remaining over the range of the dose-response curve for a given compound. […] The Ki values were determined by application of the Cheng-Prusoff equation to the IC50 values, where:
[formula] After correcting for non-specific binding, IC50 values were determined. […] The IC50 value was determined graphically from a log-logit plot of the data. The Ki values were determined by application of the Cheng-Prusoff equation to the IC50 values, the labeled ligand concentration and the Kd of the labeled ligand. see e.g., Cheng, Y. C. and Prusoff, W. H. Biochem. Pharmacol. 22:3099 (1973).

**Q.** Which Ki does the source give for CC1c2c(cc(F)c3[nH]c(=O)cc(Cl)c23)N(CC(F)(F)F)C1C (racemic) [Compound 151, (±)-9-Chloro-1,2-dimethyl-5-fluoro-3-(2,2,2-trifluoro-ethyl)-1,2,3,6-tetrahydro-pyrrolo[3,2-f]quinolin-7-one] here?
**A.** < 5 nM

**Q.** CC1c2c(ccc3[nH]c(=O)cc(Cl)c23)N(CC(F)(F)F)C1c1ccc(Cl)cc1 (racemic) [Compound 152, (±)-9-Chloro-2-(4-chlorophenyl)-1-methyl-3-(2,2,2-trifluoroethyl)-1,2,3,6-tetrahydro-pyrrolo[3,2-f]quinolin-7-one] was tested. Which Ki did it give?
**A.** > 10 nM

**Q.** How did the Ki turn out when CC1c2c(ccc3[nH]c(=O)cc(Cl)c23)N(CC(F)(F)F)C1c1cccc(Br)c1 (racemic) [Compound 153, (±)-2-(3-Bromophenyl)-9-chloro-1-methyl-3-(2,2,2-trifluoroethyl)-1,2,3,6-tetrahydro-pyrrolo[3,2-f]quinolin-7-one] was run?
**A.** > 10 nM

**Q.** Which Ki does the source give for CC1c2c(ccc3[nH]c(=O)cc(Cl)c23)N(CC(F)(F)F)C1c1cccc([N+](=O)[O-])c1 (racemic) [Compound 154, (±)-9-Chloro-1-methyl-2-(3-nitrophenyl)-3-(2,2,2-trifluoroethyl)-1,2,3,6-tetrahydro-pyrrolo[3,2-f]quinolin-7-one] here?
**A.** > 10 nM

**Q.** Which Ki does the source give for CC1c2c(ccc3[nH]c(=O)cc(Cl)c23)N(CC(F)(F)F)C1c1ccc(O)cc1 (racemic) [Compound 155, (±)-9-Chloro-2-(4-hydroxyphenyl)-1-methyl-3-(2,2,2-trifluoroethyl)-1,2,3,6-tetrahydro-pyrrolo[3,2-f]quinolin-7-one] here?
**A.** > 10 nM

**Q.** CC1c2c(ccc3[nH]c(=O)cc(Cl)c23)N(CC(F)(F)F)C1c1ccccc1F (racemic) [Compound 156, (±)-9-Chloro-2-(2-fluorophenyl)-1-methyl-3-(2,2,2-trifluoroethyl)-1,2,3,6-tetrahydro-pyrrolo[3,2-f]quinolin-7-one] was tested. Which Ki did it give?
**A.** < 5 nM

**Q.** CC1c2c(ccc3[nH]c(=O)cc(Cl)c23)N(CC(F)(F)F)C1c1ccc(Cl)c(Cl)c1 (racemic) [Compound 157, (±)-9-Chloro-2-(3,4-dichlorophenyl)-1-methyl-3-(2,2,2-trifluoroethyl)-1,2,3,6-tetrahydropyrrolo[3,2-f]quinolin-7-one] was tested. Which Ki did it give?
**A.** < 5 nM

**Q.** With CC1c2c(ccc3[nH]c(=O)cc(Cl)c23)N(CC(F)(F)F)C1c1cc(C(F)(F)F)cc(C(F)(F)F)c1 (racemic) [Compound 158, (±)-9-Chloro-2-(3,5-bis(trifluoromethyl)phenyl)-1-methyl-3-(2,2,2-trifluoroethyl)-1,2,3,6-tetrahydropyrrolo[3,2-f]quinolin-7-one] as the compound, how does the Ki read?
**A.** < 5 nM

**Q.** For CC1c2c(ccc3[nH]c(=O)cc(Cl)c23)N(CC(F)(F)F)C1c1cccc(C(F)(F)F)c1 (racemic) [Compound 159, (±)-9-Chloro-1-methyl-3-(2,2,2-trifluoroethyl)-2-(3-trifluoromethylphenyl)-1,2,3,6-tetrahydropyrrolo[3,2-f]quinolin-7-one], which Ki is on record?
**A.** > 10 nM

**Q.** For CCC1c2c(ccc3[nH]c(=O)cc(Cl)c23)N(CC(F)(F)F)C1c1ccccc1 (racemic) [Compound 160, (±)-9-Chloro-1-ethyl-2-phenyl-3-(2,2,2-trifluoroethyl)-1,2,3,6-tetrahydro-pyrrolo[3,2-f]-quinolin-7-one], which Ki is on record?
**A.** > 10 nM

**Q.** For CC1c2c(ccc3[nH]c(=O)cc(Cl)c23)N(CC(F)(F)F)C1c1cccs1 (racemic) [Compound 161, (±)-9-Chloro-1-methyl-2-(thien-2-yl)-3-(2,2,2-trifluoroethyl)-1,2,3,6-tetrahydro-pyrrolo[3,2-f]quinolin-7-one], which Ki is on record?
**A.** < 5 nM

**Q.** How did the Ki turn out when CCC1c2c(ccc3[nH]c(=O)cc(Cl)c23)N(CC(F)(F)F)C1c1cccs1 (racemic) [Compound 164, (±)-9-Chloro-1-ethyl-2-(thien-2-yl)-3-(2,2,2-trifluoroethyl)-1,2,3,6-tetrahydro-pyrrolo[3,2-f]-quinolin-7-one] was run?
**A.** < 5 nM

**Q.** CCCC1c2c(ccc3[nH]c(=O)cc(Cl)c23)N(CC(F)(F)F)C1C (racemic) [Compound 165, (±)-9-Chloro-2-methyl-1-propyl-3-(2,2,2-trifluoroethyl)-1,2,3,6-tetrahydro-pyrrolo[3,2-f]-quinolin-7-one] was tested. Which Ki did it give?
**A.** < 5 nM

**Q.** With CCC1C(C)c2c(ccc3[nH]c(=O)cc(Cl)c23)N1CC (racemic) [Compound 166, (±)-9-Chloro-2,3-diethyl-1-methyl-1,2,3,6-tetrahydro-pyrrolo[3,2-f]quinolin-7-one] as the compound, how does the Ki read?
**A.** > 10 nM

**Q.** Which Ki does the source give for CC1c2c(ccc3[nH]c(=O)cc(Cl)c23)N(CC(F)(F)C(F)(F)F)C1C (racemic) [Compound 167, (±)-9-Chloro-1,2-dimethyl-3-(2,2,3,3,3-pentafluoropropyl)-1,2,3,6-tetrahydro-pyrrolo[3,2-f]-quinolin-7-one] here?
**A.** < 5 nM

**Q.** With CC1c2c(ccc3[nH]c(=O)cc(Cl)c23)N(CC(F)(F)C(F)(F)C(F)(F)F)C1C (racemic) [Compound 168, (±)-9-Chloro-1,2-dimethyl-3-(2,2,3,3,4,4,4-heptafluorobutyl)-1,2,3,6-tetrahydro-pyrrolo[3,2-f]quinolin-7-one] as the compound, how does the Ki read?
**A.** > 10 nM

**Q.** Which Ki does the source give for CC1c2c(ccc3[nH]c(=O)cc(Cl)c23)N(CCC(F)(F)F)C1c1ccccc1 (racemic) [Compound 169, (±)-9-Chloro-1-methyl-2-phenyl-3-(3,3,3-trifluoropropyl)-1,2,3,6-tetrahydro-pyrrolo[3,2-f]quinolin-7-one] here?
**A.** < 5 nM

**Q.** CCC1C(C)c2c(ccc3[nH]c(=O)cc(Cl)c23)N1CCC(F)(F)F (racemic) [Compound 170, (±)-9-Chloro-2-ethyl-1-methyl-3-(3,3,3-trifluoropropyl)-1,2,3,6-tetrahydro-pyrrolo[3,2-f]quinolin-7-one] was tested. Which Ki did it give?
**A.** < 5 nM

**Q.** For CC1c2c(ccc3[nH]c(=O)cc(Cl)c23)N(CC(F)(F)C(F)(F)F)C1c1ccccc1 (racemic) [Compound 171, (±)-9-Chloro-1-methyl-3-(2,2,3,3,3-pentafluoropropyl)-2-phenyl-1,2,3,6-tetrahydro-pyrrolo[3,2-f]quinolin-7-one], which Ki is on record?
**A.** > 10 nM

**Q.** For CC1c2c(ccc3[nH]c(=O)cc(C(F)(F)F)c23)N(CC(F)(F)C(F)(F)F)C1C (racemic) [Compound 173, (±)-1,2-Dimethyl-3-(2,2,3,3,3-pentafluoropropyl)-9-trifluoromethyl-1,2,3,6-tetrahydro-pyrrolo[3,2-f]quinolin-7-one], which Ki is on record?
**A.** < 5 nM

**Q.** How did the Ki turn out when CC1c2c(ccc3[nH]c(=O)cc(C(F)(F)F)c23)N(CCC(F)(F)F)C1C (racemic) [Compound 174, (±)-1,2-Dimethyl-9-trifluoromethyl-3-(3,3,3-trifluoropropyl)-1,2,3,6-tetrahydro-pyrrolo[3,2-f]quinolin-7-one] was run?
**A.** < 5 nM

**Q.** Which Ki does the source give for CC1c2c(ccc3[nH]c(=O)cc(C(F)(F)F)c23)N(CC(F)(F)Cl)C1C (racemic) [Compound 175, (±)-3-(2-Chloro-2,2-difluoroethyl)-1,2-dimethyl-9-trifluoromethyl-1,2,3,6-tetrahydro-pyrrolo[3,2-f]quinolin-7-one] here?
**A.** < 5 nM

Same assay, conditions: competition with 1 nM 3H-DHT, transfected COS-1 cells, 3 h at 37° C., Cheng-Prusoff from IC50; read-out: Ki

**Q.** With CC1c2c(ccc3[nH]c(=O)cc(Cl)c23)NC1c1ccccc1 (racemic) [Compound 172, (±)-9-Chloro-1-methyl-2-phenyl-1,2,3,6-tetrahydro-pyrrolo[3,2-f]quinolin-7-one] as the compound, how does the Ki read?
**A.** > 10 nM
